Consider six compounds from ChEMBL document CHEMBL5465560, “Selectivity Literature for EUbOPEN Chemogenomic Library” (2024).

For assay [1], the target named is T1, Ephrin type-A receptor 3 (Homo sapiens) (UniProt P29320).
T1 sequence (whole entry): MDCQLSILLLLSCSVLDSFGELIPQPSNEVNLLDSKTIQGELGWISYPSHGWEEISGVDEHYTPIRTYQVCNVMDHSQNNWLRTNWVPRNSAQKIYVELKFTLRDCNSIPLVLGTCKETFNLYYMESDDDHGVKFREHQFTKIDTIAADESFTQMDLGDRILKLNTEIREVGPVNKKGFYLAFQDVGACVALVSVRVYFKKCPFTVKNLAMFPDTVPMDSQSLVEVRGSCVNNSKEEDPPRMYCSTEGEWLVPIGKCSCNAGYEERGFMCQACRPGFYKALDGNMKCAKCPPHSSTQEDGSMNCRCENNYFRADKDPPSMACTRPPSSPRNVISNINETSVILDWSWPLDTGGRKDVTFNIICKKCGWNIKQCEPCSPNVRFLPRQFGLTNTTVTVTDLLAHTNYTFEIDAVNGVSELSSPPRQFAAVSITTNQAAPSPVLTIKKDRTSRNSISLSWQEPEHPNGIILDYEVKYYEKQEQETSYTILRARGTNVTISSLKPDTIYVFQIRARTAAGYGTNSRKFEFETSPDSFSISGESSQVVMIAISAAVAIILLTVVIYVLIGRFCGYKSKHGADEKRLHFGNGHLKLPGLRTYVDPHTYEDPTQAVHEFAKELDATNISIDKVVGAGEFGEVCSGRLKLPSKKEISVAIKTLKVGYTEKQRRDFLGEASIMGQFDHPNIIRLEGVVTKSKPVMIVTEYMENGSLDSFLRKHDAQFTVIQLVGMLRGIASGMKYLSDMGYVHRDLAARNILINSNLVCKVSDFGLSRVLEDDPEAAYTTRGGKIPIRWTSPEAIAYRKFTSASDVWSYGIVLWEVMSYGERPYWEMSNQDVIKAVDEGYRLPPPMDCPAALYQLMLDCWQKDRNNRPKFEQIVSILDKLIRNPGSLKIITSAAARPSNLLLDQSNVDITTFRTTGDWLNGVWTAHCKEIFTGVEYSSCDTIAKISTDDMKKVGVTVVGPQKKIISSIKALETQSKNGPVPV
Briefly: Selectivity interaction (SelectScreen profiling (Invitrogen)) EUB0000607a EPHA3. The note with it: at 2 µM.

In assay [2] the target is Tyrosine-protein kinase receptor Tie-1 (Homo sapiens) (UniProt P35590). Briefly: Selectivity interaction (KinomeScan (DiscoverX)) EUB0000607a TIE1. The conditions noted are these: at 10 µM.
Assay [3] deals with T2, Eukaryotic translation initiation factor 2-alpha kinase 3 (Homo sapiens) (UniProt Q9NZJ5).
T2 sequence (whole entry): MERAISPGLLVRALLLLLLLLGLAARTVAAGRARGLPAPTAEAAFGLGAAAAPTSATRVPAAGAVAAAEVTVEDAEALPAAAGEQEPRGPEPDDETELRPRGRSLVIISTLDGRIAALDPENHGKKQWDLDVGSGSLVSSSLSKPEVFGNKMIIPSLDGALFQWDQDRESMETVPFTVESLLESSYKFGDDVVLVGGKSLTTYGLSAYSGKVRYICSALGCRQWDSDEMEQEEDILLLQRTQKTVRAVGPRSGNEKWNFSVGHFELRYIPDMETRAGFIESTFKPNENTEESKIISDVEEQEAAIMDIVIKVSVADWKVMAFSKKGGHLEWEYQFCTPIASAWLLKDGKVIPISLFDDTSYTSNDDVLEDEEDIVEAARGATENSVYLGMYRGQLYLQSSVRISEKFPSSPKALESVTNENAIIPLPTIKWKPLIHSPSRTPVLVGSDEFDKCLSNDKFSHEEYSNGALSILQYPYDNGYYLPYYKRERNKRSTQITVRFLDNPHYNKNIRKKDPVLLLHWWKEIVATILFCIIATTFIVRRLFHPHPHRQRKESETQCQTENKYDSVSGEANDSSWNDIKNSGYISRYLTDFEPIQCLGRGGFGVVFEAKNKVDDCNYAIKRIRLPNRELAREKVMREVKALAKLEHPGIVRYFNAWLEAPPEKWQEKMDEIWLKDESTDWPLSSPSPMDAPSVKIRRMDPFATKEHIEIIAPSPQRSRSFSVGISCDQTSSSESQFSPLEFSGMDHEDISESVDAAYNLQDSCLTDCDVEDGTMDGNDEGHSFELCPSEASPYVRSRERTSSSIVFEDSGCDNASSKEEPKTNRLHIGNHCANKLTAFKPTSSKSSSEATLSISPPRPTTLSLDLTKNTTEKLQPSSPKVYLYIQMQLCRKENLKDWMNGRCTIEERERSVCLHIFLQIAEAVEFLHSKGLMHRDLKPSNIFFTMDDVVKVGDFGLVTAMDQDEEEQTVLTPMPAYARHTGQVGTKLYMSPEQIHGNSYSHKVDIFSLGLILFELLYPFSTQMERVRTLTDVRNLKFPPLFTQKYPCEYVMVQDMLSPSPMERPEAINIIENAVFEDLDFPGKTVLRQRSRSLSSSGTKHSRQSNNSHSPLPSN
Briefly: Selectivity interaction (ActivX KiNativ screen (kinase selectivity in THP-1 cell lysates)) EUB0000639a EIF2AK3. The class given is subcellular. The conditions noted are these: lysate.

The target in assay [4] is T3, Calcium/calmodulin-dependent protein kinase type IV (Homo sapiens) (UniProt Q16566).
T3 sequence (whole entry): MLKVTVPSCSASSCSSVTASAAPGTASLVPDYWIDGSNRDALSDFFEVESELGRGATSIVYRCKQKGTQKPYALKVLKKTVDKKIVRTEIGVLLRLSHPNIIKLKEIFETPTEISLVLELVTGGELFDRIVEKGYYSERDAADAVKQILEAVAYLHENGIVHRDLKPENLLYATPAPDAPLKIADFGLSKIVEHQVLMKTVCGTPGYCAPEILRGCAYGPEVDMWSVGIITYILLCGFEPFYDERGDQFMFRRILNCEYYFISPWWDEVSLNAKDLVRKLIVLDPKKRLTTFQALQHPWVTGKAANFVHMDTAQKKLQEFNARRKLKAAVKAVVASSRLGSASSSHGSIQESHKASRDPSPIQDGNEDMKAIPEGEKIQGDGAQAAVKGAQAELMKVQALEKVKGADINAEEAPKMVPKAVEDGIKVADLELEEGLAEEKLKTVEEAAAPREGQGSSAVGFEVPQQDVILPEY
The conditions noted are these: at 10 µM.

Assay [5] has as its target Protein-tyrosine kinase 6 (Homo sapiens, UniProt Q13882).
Assay [6] addresses MAP kinase-interacting serine/threonine-protein kinase 2 (Homo sapiens, UniProt Q9HBH9). Briefly: Selectivity interaction (KinomeScan (DiscoverX)) EUB0000618a MKNK2. The conditions noted are these: at 10 µM.
Assay [7] has as its target Cyclin-dependent kinase 18 (Homo sapiens) (UniProt Q07002). As to the kind of experiment: Selectivity interaction (KinomeScan (DiscoverX)) EUB0000595a CDK18. The note with it: at 10 µM.
Assay [8] concerns the target Epidermal growth factor receptor (Homo sapiens, UniProt P00533). The note with it: at 10 µM.

The structures appear in SMILES notation. Where only a bound is given, the exact number is not on record here.

Chain of Protein-tyrosine kinase 6 (Q13882 whole entry): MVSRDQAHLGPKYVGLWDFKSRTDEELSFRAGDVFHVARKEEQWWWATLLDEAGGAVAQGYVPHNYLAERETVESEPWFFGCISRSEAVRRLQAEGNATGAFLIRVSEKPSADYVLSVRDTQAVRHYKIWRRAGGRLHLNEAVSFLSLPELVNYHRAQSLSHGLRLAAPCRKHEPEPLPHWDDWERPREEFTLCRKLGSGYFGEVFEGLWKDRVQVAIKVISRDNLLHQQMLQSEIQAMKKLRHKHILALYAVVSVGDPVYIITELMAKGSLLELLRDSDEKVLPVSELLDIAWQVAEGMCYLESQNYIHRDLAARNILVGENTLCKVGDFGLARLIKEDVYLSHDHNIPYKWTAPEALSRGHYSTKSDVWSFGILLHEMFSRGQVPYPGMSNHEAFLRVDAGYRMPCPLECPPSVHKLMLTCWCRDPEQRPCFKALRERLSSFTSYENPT
Chain of Epidermal growth factor receptor (P00533 whole entry): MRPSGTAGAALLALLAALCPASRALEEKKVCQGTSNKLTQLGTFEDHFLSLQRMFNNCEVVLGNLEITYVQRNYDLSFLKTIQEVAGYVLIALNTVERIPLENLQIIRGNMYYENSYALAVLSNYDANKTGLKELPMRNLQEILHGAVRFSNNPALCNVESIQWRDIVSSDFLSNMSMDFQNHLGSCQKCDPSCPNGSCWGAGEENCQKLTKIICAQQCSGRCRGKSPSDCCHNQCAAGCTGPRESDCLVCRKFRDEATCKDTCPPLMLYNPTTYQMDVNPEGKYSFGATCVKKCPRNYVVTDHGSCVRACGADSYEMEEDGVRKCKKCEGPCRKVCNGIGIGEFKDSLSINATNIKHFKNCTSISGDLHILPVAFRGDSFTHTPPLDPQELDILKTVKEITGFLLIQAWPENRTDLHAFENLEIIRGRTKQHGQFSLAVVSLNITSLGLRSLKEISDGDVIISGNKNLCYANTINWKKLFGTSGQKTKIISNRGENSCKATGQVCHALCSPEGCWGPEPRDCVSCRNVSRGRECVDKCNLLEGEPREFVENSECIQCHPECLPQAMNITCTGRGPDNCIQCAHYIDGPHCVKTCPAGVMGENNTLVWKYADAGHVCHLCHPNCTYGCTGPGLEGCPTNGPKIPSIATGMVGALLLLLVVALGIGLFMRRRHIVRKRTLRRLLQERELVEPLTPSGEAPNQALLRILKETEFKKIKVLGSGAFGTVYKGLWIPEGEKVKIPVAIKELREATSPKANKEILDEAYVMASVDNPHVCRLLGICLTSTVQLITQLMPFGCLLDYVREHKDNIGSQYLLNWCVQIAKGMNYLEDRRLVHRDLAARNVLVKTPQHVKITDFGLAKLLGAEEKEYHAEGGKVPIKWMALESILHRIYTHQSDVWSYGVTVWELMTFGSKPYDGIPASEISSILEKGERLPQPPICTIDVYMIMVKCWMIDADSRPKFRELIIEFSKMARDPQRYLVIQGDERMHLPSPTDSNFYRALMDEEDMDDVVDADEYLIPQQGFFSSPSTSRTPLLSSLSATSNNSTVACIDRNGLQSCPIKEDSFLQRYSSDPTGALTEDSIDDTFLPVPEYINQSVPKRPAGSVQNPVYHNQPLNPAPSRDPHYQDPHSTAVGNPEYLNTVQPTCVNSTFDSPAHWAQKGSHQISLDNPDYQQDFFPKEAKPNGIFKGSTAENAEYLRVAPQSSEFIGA
Chain of Cyclin-dependent kinase 18 (Homo sapiens) (Q07002 whole entry): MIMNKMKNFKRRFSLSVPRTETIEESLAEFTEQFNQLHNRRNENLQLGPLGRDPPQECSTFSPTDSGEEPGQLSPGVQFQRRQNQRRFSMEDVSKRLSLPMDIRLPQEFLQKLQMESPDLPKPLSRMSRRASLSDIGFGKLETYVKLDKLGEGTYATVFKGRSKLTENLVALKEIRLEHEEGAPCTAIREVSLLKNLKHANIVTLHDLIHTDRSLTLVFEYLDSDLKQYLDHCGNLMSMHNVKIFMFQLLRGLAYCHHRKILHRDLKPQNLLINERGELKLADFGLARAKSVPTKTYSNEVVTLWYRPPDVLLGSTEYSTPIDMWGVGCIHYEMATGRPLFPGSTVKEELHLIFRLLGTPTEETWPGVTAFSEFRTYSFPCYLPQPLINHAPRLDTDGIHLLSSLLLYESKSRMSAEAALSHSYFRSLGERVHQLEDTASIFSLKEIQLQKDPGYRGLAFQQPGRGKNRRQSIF
Chain of MAP kinase-interacting serine/threonine-protein kinase 2 (Q9HBH9 whole entry, looked up): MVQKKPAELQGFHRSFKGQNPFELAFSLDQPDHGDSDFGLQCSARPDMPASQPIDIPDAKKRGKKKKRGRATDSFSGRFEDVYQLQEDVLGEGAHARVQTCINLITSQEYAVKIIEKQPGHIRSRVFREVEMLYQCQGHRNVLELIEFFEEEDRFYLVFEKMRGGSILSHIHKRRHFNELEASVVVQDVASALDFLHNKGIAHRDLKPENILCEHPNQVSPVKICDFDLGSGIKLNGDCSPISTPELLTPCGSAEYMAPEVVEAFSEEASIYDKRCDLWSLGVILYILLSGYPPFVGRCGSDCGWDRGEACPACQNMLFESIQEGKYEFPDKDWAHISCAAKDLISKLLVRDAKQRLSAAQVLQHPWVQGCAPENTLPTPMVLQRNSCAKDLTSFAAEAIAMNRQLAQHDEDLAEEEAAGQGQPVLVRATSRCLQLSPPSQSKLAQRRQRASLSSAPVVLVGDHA
Chain of Tyrosine-protein kinase receptor Tie-1 (Homo sapiens) (P35590 whole entry): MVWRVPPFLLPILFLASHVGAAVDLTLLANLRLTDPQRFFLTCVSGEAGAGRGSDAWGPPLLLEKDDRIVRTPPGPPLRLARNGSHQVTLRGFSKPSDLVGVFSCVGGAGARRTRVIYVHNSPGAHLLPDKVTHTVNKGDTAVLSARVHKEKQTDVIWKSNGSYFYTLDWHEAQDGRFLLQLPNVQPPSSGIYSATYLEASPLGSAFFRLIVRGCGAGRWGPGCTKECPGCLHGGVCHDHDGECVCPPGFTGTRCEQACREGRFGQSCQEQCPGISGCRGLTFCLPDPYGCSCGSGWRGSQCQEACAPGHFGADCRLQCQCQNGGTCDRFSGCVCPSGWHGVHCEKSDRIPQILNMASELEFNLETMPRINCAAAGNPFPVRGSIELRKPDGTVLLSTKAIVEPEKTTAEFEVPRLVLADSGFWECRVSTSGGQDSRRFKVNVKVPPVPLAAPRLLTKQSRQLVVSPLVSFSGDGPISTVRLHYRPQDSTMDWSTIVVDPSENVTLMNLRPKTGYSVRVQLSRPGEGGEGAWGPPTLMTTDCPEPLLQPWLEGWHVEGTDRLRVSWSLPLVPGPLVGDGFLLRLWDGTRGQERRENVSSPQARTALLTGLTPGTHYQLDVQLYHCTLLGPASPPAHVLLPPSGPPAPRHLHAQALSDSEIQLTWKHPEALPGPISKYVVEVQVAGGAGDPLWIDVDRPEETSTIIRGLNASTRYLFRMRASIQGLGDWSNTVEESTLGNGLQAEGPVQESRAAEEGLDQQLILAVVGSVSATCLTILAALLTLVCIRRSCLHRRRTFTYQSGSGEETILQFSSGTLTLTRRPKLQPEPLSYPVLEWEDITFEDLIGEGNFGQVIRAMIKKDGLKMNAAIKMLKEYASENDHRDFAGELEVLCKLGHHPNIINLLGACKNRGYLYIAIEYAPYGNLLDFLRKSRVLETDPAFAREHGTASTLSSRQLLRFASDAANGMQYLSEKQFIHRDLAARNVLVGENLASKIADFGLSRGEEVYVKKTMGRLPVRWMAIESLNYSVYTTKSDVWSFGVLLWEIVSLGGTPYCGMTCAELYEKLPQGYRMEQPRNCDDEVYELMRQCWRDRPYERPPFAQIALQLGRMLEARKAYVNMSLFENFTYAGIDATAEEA

For the compound `CNC(=O)Nc1ccc(-c2nc(N3CC4CCC(C3)O4)c3cnn(C4CCC5(CC4)OCCO5)c3n2)cc1`, the % of inhibition in assay [1] worked out at 4%. In addition, the % of control in assay [2] came out at 98%.

In the case of `CC[C@@H]1[C@H](F)C(=O)N[C@@H]1COc1nccc2cc(C(N)=O)c(OC)cc12` [ZIMLOVISERTIB], the % of inhibition in assay [3] (at 0.01 µM) was 5.1%; in assay [3] (at 0.04 µM) it was -15.8%; in assay [3] (at 0.2 µM) it was -12.3%; in assay [3] (at 1 µM), -2.3%; in assay [3] (at 5 µM), -20.8%.

Consider `CCN(CC)CCCCNc1ncc2cc(-c3cc(OC)cc(OC)c3)c(NC(=O)NC(C)(C)C)nc2n1`, for which, in assay [4], the % of control came to 100%.

A word on the IC50: it is the concentration needed to halve the response being measured. The compound `CCc1cccc(CC)c1NC(=O)c1nn(C)c2c1CCc1cnc(Nc3ccc(C(=O)NC4CCN(C)CC4)cc3OC(F)(F)F)nc1-2` returned an IC50 in assay [5] above 10 µM.

For `O[C@H]1CC[C@H](Nc2ncc3nc(Nc4c(F)cc(F)cc4F)n([C@H]4CCOC4)c3n2)CC1`, in assay [6], the % of control stood at 100%.

For the compound `COCC(=O)NC/C=C/c1ccc2ncnc(Nc3ccc(Oc4ccc(C)nc4)c(C)c3)c2c1` [CP-724714], the results for the % of control in assay [7] and in assay [8] were 99% and 0.2%, respectively.
